Here are results for four molecules from US20140056866A1, “USE OF BIOLOGICAL OR CHEMICAL CONTROL AGENTS FOR CONTROLLING INSECTS AND NEMATODES IN RESISTANT CROPS” (priority 2010, published 2014).

Series [1] relates to Glycine max (soybean) roots. The series can be described thus: WinRHIZO root image analysis of soybean (Example 2). In kind it is in vivo. The method, then: (§1) Glycine max (soybean) seed from an event traited with Axmi031 was selected. […] Plants that screened negative for the presence of the transgene were used for control comparisons.
(§2) Seed was treated with seed applied pesticides using a hege bowl treater. Metalaxyl (MTL), available as Allegiance through Bayer CropScience, was applied at rates of 2 and 4 g ai/100 kg seed. Trilex 2000 was also included as a commercial standard package.
(§3) During testing, samples of each plant were submitted for PCR to determine if an individual plant carried the Axmi031 gene (Positive or Negative). Plants for which no PCR results could be obtained were not included in results. There were a disproportionate number of positive plants. As a result, the number of negative plants available in some comparisons was very small.
(§4) Testing was conducted as a randomized complete block with 30 replications. Seed were planted into sand at a rate of one seed per pot. Plants were stored at 10° C. for eight days and then moved to 25° C. for the remainder of the test. Plants were periodically assessed for emergence. After several weeks of growth plants were evaluated for height. At approximately 40 days after planting, 5 random plants for each treatment comparison were selected for extraction. If fewer than 5 plants were available, evaluations were still conducted as long as a minimum of 3 plants could be assessed. Exacted plants were measured by hand to determine root length and mass and evaluated using WinRHIZO image analysis system (available through Regent instruments at www.regent.qc.ca/products/rhizo/WinRHIZO.html.

Another series relates to Glycine max (soybean). The series is described as follows: Soybean shoot height and plant mass after metalaxyl seed treatment (Example 2). It is filed as in vivo. Here is the method:
as §1, §2, §3, §4

The next series deals with S. frugiperda. The series can be described thus: Leaf sample bioassay with fall armyworm larvae (Example 3). In kind it is in vivo. The following applies: for Insect Mortality / Leaf Feeding Rating: 48 hours; for Insect Mortality: Jul. 14, 2011; for Leaf Feeding Rating: scale 0 = undamaged to 3 = severe feeding; for additional increase in mortality in the presence of Axmi205: versus clothianidin alone; for increase in mortality above the negative control: Axmi205-negative plants. Here is the method:
(§5) Zea Mays (Corn) seed from events traited with Axmi205 were selected. […] The population of the seed used is not entirely transgenic; plants without the trait in their DNA were used for control comparisons.
(§6) Seed was treated with seed applied pesticides using a hege bowl treater. Applications were made of: Clothianidin; available as Poncho though through Bayer CropScience. Rates were applied as mg ai/seed. The evaluation had non-target variables controlled.
(§7) During testing, samples of each plant were submitted for PCR to determine if an individual plant carried the Axmi205 gene (positive or negative). Plants for which no PCR results could be obtained were not included in the results.
(§8) Seed were planted into germination mix at a rate of one seed per root-trainer. Testing was conducted as a randomized complete block with 30 replications. Plants were maintained in a greenhouse and periodically assessed for emergence. After several weeks of growth, leaf samples were taken from plants and used to conduct insect bioassays on species of Lepidoptera. A leaf sample was placed into a Petri-dish and infested with 10 larvae of fall armyworm; Spodoptera frugiperda. After 48 hours dishes were evaluated for insect mortality and leaf feeding damage. When assessing leaf feeding, damage was recorded as a rating between 0-3, where zero was undamaged and three was severely damaged. After approximately three weeks from planting, plants were infested with Diabrotica virgifera (western corn rootworm). Western corn rootworm eggs were infested into the root system of plants. At approximately 15 days post infestation plants were extracted and insect feeding damage was evaluated following Iowa State University's Node-Injury Scale at www.ent.iastate.edu/pest/rootworm/nodeinjury/nodeinjury.html.

The test system of another series is D. virgifera. The series can be described thus: Western corn rootworm root feeding damage, Node-Injury Scale (Example 3). In kind it is in vivo, Diabrotica virgifera. The following applies: for Root Damage Rating: 0 = undamaged, 3 = severely damaged. The method, then: as §5, §6, §7, §8
Another series relates to SCN (inbred colony OP50). The series is described as follows: SCN cyst counts on soybean pot plants, seed treated with fluopyram (Example 1). It is filed as in vivo, soybean cyst nematodes. The following applies: base (color/coating) treatment only, two months after planting. Here is the method: Two tests were planted with Jack (an SCN resistant soybean variety with PI 88788 resistance) and two genetically modified Jack varieties (AXN2 and AXMI031) known to produce a nematicidal protein. The seed were treated with a color/coating base or the same base plus one of two different rates of fluopyram (experiment 1 used 0.075 mg fluopyram/seed and experiment 2 used 0.15 mg fluopyram/seed). The SCN used to inoculate both tests were collected from an inbred colony (OP50) with the ability to overcome PI 88788 resistance.
Tests were conducted as non-randomized blocks with a minimum of 10 replicates. Seed were planted in individual 4″ clay pots with coarse sand and inoculated with approximately 20,000 OP50 juveniles in ten equal inoculations beginning at planting and again approximately every third day. Plants were maintained in a germination chamber. Blocks were rotated approximately every third day to minimize potential influence of environmental variance. Two months after planting, plants were harvested and cysts were collected and counted to evaluate the efficacy of the nematicide and traits, both individually and in combination with each other.

Another series deals with SCN (HG2.5.7). The series is described as follows: SCN cyst counts on Axmi031 soybean treated with Bacillus firmus (Example 4, FIG. 2). In kind it is in vivo, soybean cyst nematodes. The following applies: Axmi031 expression. The source says:
Soybeans (6-10 seeds each) in this study included: Control SB171 (transfected control with non gene of interest); SB 171 treated with Bacillus firmus CNCM I-1582 spore control plant; Axmi031 transgenic plant (which also contains non gene of interest); Axmi031 transgenic plant (which also contains non gene of interest) treated with Bacillus firmus CNCM I-1582 spore.
Soybeans (6-10 seeds/plant and treatment) were planted into 4″ clay pots in sand infested with approximately 37,000 SCN eggs (HG2.5.7) at time of planting. Soybean plants were reinfested with 20,000 SCN eggs (HG2.5.7) at approximately 4 weeks post planting. Plants were grown 57 days post reinfestation date. Cysts were harvested from each pot and counted. PCR and Western analysis were done on each AXMI031 plant. Negative segregants were removed from analysis. Data shown in FIG. 2 represents six plants for SB171 each treatment and all PCR/Western positive Axmi031 plants.

[2] abbreviates: metalaxyl 2 g ai added to Axmi031.
Where [3] appears, read: metalaxyl 4 g ai added to Axmi031.

Consider `COCC(=O)N(c1c(C)cccc1C)C(C)C(=O)OC` (stereo not drawn) [metalaxyl], for which, in series [1] (setting [2]), the “increase in root lengths” value is listed as 60%, the “increase in root surface area” value worked out at 42% and the “increase in root volume” value is 27%. In addition, in series [1] (setting [3]), the “increase in root lengths” value worked out at 68%, the “increase in root surface area” value worked out at 37% and the “increase in root volume” value came to 11%. The “root tips, forks, and crossings” value in series [1] (metalaxyl added to Axmi031, trend with rate) was “increased as metalaxyl rate increased”. Further, the “plant shoot height, trend with rate” value in the series on Glycine max (soybean) (metalaxyl 2 and 4 g ai/100 kg seed) is “increased with increasing rates”. Further, the “additional increase in plant total mass” value in the series with Glycine max (soybean) (metalaxyl 2 g ai on Axmi031 plants) turned out to be 5%. For the same molecule, the additional shoot height with Glycine max (soybean) (metalaxyl 2 g ai/100 kg seed on Axmi031 plants) was found to be 5%. Further, the “increase in above ground plant mass compared to Axmi031 alone” value in the series on Glycine max (soybean) (metalaxyl 4 g ai on Axmi031 plants) is listed as 11%. The additional shoot height in the series with Glycine max (soybean) (metalaxyl 4 g ai/100 kg seed on Axmi031 plants) is recorded as 8%.

For `CN/C(=N\[N+](=O)[O-])NCc1cnc(Cl)s1` [clothianidin], the “Insect Mortality” value is recorded as 8% in the series with S. frugiperda (CTD 0.125 mg ai/seed), 12% in the series on S. frugiperda (CTD 0.25 mg ai/seed) and 11% with S. frugiperda (CTD 0.5 mg ai/seed). The entries for the “Leaf Feeding Rating” value with S. frugiperda (CTD 0.125 mg ai/seed), in the series on S. frugiperda (CTD 0.25 mg ai/seed) and in the series on S. frugiperda (CTD 0.5 mg ai/seed) were 3.00, 2.77 and 3.00, respectively. Also, the “additional increase in mortality in the presence of Axmi205” value with S. frugiperda (clothianidin 0.125 mg ai/seed) amounted to 88%; in the series on S. frugiperda (clothianidin 0.5 mg ai/seed), 54%. Moreover, the entries for the “increase in mortality above the negative control” value in the series on S. frugiperda (highest rate of clothianidin (0.5 mg ai/seed)), in the series with S. frugiperda (lowest rate of clothianidin (0.125 mg ai/seed)) and in the series with S. frugiperda (middle rate of clothianidin (0.25 mg ai/seed)) were 57%, 14% and 71%, respectively. For the same molecule, the “Root Damage Rating” value in the series with D. virgifera (CTD 0.125 mg ai/seed) worked out at 0.56; in the series on D. virgifera (CTD 0.25 mg ai/seed) it was 0.32; in the series on D. virgifera (CTD 0.5 mg ai/seed), 0.04. Further, the “reduction of root damage over the negative control” value with D. virgifera (highest rate of clothianidin tested (0.5 mg ai/seed)) was 96%; in the series on D. virgifera (lowest rate of clothianidin tested (0.125 mg ai/seed)) it was 67%.

B1: Axn2: nematicidal protein trait expressed in genetically modified Jack soybean (gene axn2, Table 1) (protein, listed as Bacillus thuringiensis)
chain: MRIRRNQSTLSHNERLAFTNAVLELKRRPSRLPMSLGSTSRYDDYVYWHLQSMENQTSTTPGWAHRGPAFLPWHRYYLNQFEEDLQRIDHTVTLPYWDWTVDNSTDSSVPGSPWTDDFMGGDGDPTQEYTVTTGPFTGDNWKLTLFDHHENEPHNARLRRQLGTTLNASGNTISINLPTDSEVQNCLLETPYYVSPWRAGQDVNQPALNPTKPSFCNRLEGWYGAGSIHNKVHVWVAGATEGSMIWMSSPNDPVFFLHHANIDRLWVQWQANNPNEGYHPTGNGNEVGPTGHNLNDSMNPWGRKVTPNNVLNHYSLGYTYDTDSTPLSEIFMHTFNLKIRKEKQIKDGHFGLSQEDLDKL
Consider B1, for which the “percent reduction in average number of cysts compared to Jack” value is given as 20% in the series with SCN (inbred colony OP50) (first experiment) and 43% in the series with SCN (inbred colony OP50) (second experiment).

B2: Axmi031: nematicidal protein trait expressed in genetically modified soybean (gene axmi031, Table 1) (protein)
chain: MDCNLQSQQNIPYNVLAIPVSNVNSLTDTVGDLKKAWEEFQKTGSFSLTALQQGFSASQGGTFNYLTLLQSGISLAGSFVPGGTFVAPIINMVIGWLWPHKNKNADTENLINLIDSEIQKQLNKALLDADRNEWSSYLESIFDSSNNLNGAIVDAQWSGTVNTTNRTLRNPTESDYTNVVTNFIAADGDIANNENHIMNGNFDVAAAPYFVIGATARFAAMQSYIKFCNAWIDKVGLSDAQLTTQKANLDRTKQNMRNAILNYTQQVMKVFKDSKNMPTIGTNKFSVDTYNVYIKGMTLNVLDIVAIWPSLYPDDYTSQTALEQTRVTFSNMVGQEEGTDGSLRIYNTFDSFSYQHSPIPNNNVNLISYYNDELQNLELGVYTPPKKGSGYSYPYGFVLNYANSKYKYGDSNDPESLGGLSTLSAPIQQVNAATQNSKYLDGEILNGIGASLPGYCTTGCSPTEPPFSCTSTANGYKASCNPSDTNQKINALYPFTQANVKGNTGKLGVLASLVSYDLNPKNVFGELDSDTNNVILKGIPAEKGYFPNNARPTVVKEWINGASAVPLDSGNTLFMTATNLTATQYRIRIRYANPNSNTQIGVRITQNGSLISSSNLTLYSTTDMNNTLPLNVYVIGENGNYTLQDLYNTTNVLSTGDITLQITGGDQKIFIDRIEFVPTMPVPGNTNNNNGNNNGNNNPPHHVCAIAGTQQSCSGPPKFEQVSDLEKITTQVYMLFKS
modifications: AXMI-031(A-D)
B2: the “WinRHIZO root values versus negative control” value in series [1] (Axmi031 as an individual component) is “comparable to, or slightly below, the negative control”. The “SCN cyst counts in transgenic soybean plants” value in the series with SCN (HG2.5.7) is “correlates with reduction in SCN cysts counts”. Besides, the “percent reduction in average number of cysts compared to Jack” value came to 92% with SCN (inbred colony OP50) (first experiment) and 88% in the series with SCN (inbred colony OP50) (second experiment). Besides, in the series on Glycine max (soybean) (28 days after planting (DAP), Axmi031 without metalaxyl), the “shoot length versus untreated negative control (UTC)” value worked out at 14%. In addition, the “increase in plant total mass” value in the series with Glycine max (soybean) (presence of Axmi031, no metalaxyl) was found to be 13%.
